According to PubChem BioAssay (NCI):
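How tested: cells in 96-well plates exposed to compound for 48 hours at five concentrations. TGI marks complete inhibition of growth.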

Assays:
Assay in all cases: NCI-60 cell line screen, 48 h
[1] = test system: SN12C renal
[2] = test system: OVCAR-5 ovarian
[3] = test system: EKVX NSCLC
[4] = test system: HOP-92 NSCLC
[5] = test system: SF-268 CNS
[6] = test system: NCI-H460 lung
[7] = test system: SNB-19 CNS
[8] = test system: MCF7 breast
[9] = test system: M14 melanoma
[10] = test system: NCI-H226 lung
[11] = test system: SK-MEL-2 melanoma
[12] = test system: ACHN renal
[13] = test system: CCRF-CEM leukemia
[14] = test system: RXF 393 renal
[15] = test system: DU-145 prostate

| SMILES | TGI [1] [µM] | TGI [2] [µM] | TGI [3] [µM] | TGI [4] [µM] | TGI [5] [µM] | TGI [6] [µM] | TGI [7] [µM] | TGI [8] [µM] | TGI [9] [µM] | TGI [10] [µM] | TGI [11] [µM] | TGI [12] [µM] | TGI [13] [µM] | TGI [14] [µM] | TGI [15] [µM] |
| --- | --- | --- | --- | --- | --- | --- | --- | --- | --- | --- | --- | --- | --- | --- | --- |
| CC(C)=CCC[C@]1(C)C=Cc2c(O)c3c(c(CC=C(C)C)c2O1)O[C@]12C(=C[C@@H]4CC1C(C)(C)O[C@@]2(C/C=C(/C)C(=O)O)C4=O)C3=O | 4.69 | 2.94 | 4.39 | 9.16 | 3.91 | 3.27 | 7.36 | 1.42 | 3.19 | 3.93 | 4.13 | 1.37 | 1.45 | 2.34 |  |
| C[C@@H](c1ccccc1)n1c(N)c(-c2ccccn2)c2ccc([N+](=O)[O-])cc2c1=O | > 100 |  |  | > 100 | > 100 | > 100 | > 100 |  |  | > 100 | > 100 | > 100 | > 100 |  | > 100 |
| CNNC1=NS(=O)(=O)c2cc(C#N)c(Cl)cc2S1 | > 10 | > 10 | > 10 |  | > 10 | > 10 | > 10 |  | > 10 | > 10 | > 10 | > 10 | > 10 | > 10 | > 10 |
| CCN(CC)c1cccc2c1/C(=N/O)CCCC2 | > 100 |  | > 100 |  | > 100 | > 100 | > 100 |  |  | > 100 | > 100 | > 100 | > 100 | > 100 |  |
| c1ccc(-c2nnn3c2NC2=C(CCCC2)C3c2ccccc2)cc1 (configuration not stated) | 51.1 | 36.9 |  |  | 48.9 | 52.8 | > 100 | 51.9 | 35.5 | > 100 | 36 | 3.09 | 31.1 | 34.9 | 33.3 |
| CCOC(=O)c1c(N)n(-c2ccccc2)c(=O)n(-c2ccccc2)c1=O | > 100 | > 100 |  | > 100 | > 100 | > 100 | > 100 | > 100 | > 100 | > 100 | > 100 | > 100 |  | > 100 | > 100 |
| CCc1ccccc1N=NC(=O)NNc1ccccc1CC | 35.7 | 29.4 |  |  | 35.4 | 34.5 | 95 | 36.3 | 34.7 | 34.4 | 31.7 | 54.6 | 65.6 |  | 33.6 |
| NC(Cc1ccc(OCc2ccccc2)cn1)C(=O)O (configuration not stated) | > 100 | > 100 | > 100 |  | > 100 | > 100 | > 100 | > 100 |  | > 100 |  | > 100 | > 100 | > 100 | > 100 |
